Entries after “also recorded” stand apart in the source; their conditions may differ.
Columns and labels:
[1] = test system: FGFR2(IIIb); assay: Chemical cross-linking of 125I-FGF to soluble FGFR2(IIIb); assay type: binding, murine; conditions: with and without excess unlabelled FGF
Method: (§1) Binding of FGF proteins to different FGF receptors are determined in this example, by measuring the degree of competition for binding to different types of FGF-receptor proteins between a radioiodinated FGF protein and various unlabelled proteins, or by the direct binding of radioiodinated FGF's to various receptor proteins. Binding studies are confirmed by chemical cross-linking of the radioiodinated FGF to soluble receptors in the presence and absence of excess unlabelled FGF.
(§2) Soluble FGF receptor proteins are constructed by cloning of the extracellular region of murine FGF receptor 1 (FGFR-1; flg), FGF receptor 2 (FGFR-2; bek) or the KGF receptor (FGFR(IIIb); K-sam) into the alkaline phosphatase-tag expression vector, which encodes for a secreted form of placental alkaline phosphatase (AP). The FGF receptor alkaline phosphatase (FRAP) plasmids are cotransfected into NIH 3T3 cells by electroporation with a selectable neomycin resistance gene. Clonies are selected in G418 (600 μg/ml) and screened for secreted AP enzyme activity in the conditioned medium. Clones of each receptor which produced a high level of AP activity (2 to 4 A405 units/min/ml) are then used to produce conditioned medium for binding assays.
(§3) Chemical cross-linking experiments are carried out at room temperature in a volume of 20 μl in siliconized 0.5-ml microcentrifuge tubes. The reaction mixtures contain FGF receptor immobilized to anti-AP monoclonal antibodies coupled to protein A Sepharose®, 200 ng/ml heparin, 2 ng/ml^125 I-bFGF, 20 mM phosphate buffer (pH 7.4), and 140 mM NaCl. After a 90 minute incubation, […] of a solution of disuccinimidyl suberate (Pierce) dissolved in dimethyl sulfoxide is added to give a final concentration of 0.15 mM, and the mixture incubated for an additional 30 minutes. The reaction is quenched by addition of […] of 200 mM ethanolamine-HCl (pH 8.0) for 30 min. The reaction mixtures are diluted 1:1 with 2× SDS-polyacrylamide gel electrophoresis loading buffer and electrophoresed on an SDS-12% polyacrylamide gel. Cross-linked FGF to the FGF receptor are detected by autoradiography on Kodak XAR film.

[2] = test system: FGFR1; assay: Chemical cross-linking of 125I-FGF to soluble FGFR1; assay type: binding, murine; conditions: with and without excess unlabelled FGF
Method: as §1, §2, §3

[3] = test system: neovascularization; assay: In vivo angiogenesis, rabbit ear chamber model
Method: In an in vivo model of angiogenesis, FGF-2LI is evaluated using the rabbit ear chamber system modified and improved by Howden, G. F., and Silver, I. A., (Int. Endodontic J. 13: 3-16 (1980)), observing the growth factor-induced neovascularization, or its inhibition, by modified growth factors or other reagents.
Rabbits are sedated using 50-70 mg/kg ketamine and 10 mg/kg xylozine administered intramuscularly. The ears are shaved with an electric hair clipper and cleaned with water, followed by Betadine®. To minimize the risk of infection, the rabbits are given 20,000 units/kg benzathine penicillin intramuscularly prior to insertion of the ear chambers. The chamber is inserted into an approximately 0.75 cm area which is not crossed by any major vessels. During the course of the experiments, observations or any minor handling of ear chambers of the animals is done by sedating the animal using the intramuscular administration of a combination of Butorphanol® and acepromazine at levels of 1 mg/kg each. FGF-2 or FGF-2LI bound to heparin-Sepharose® beads in a controlled-release alginate capsule is contained in one of the ear chambers and the other is used as a control containing only the heparin-Sepharose® alginate capsule vehicle. Thus, the effect of the growth factors and the controlled-release capsule alone can be observed simultaneously in the same animal. […] The animals are kept for 4 to 6 weeks and neovascularization is observed visually and recorded photographically at weekly intervals.
The criteria for evaluation of the degree of neovascularization using this procedure is set out below.

[4] = test system: soluble FGF receptor 1 (FGFR-1; flg); assay: Competition binding to soluble FGFR1 (displacement of 125I-FGF-2); parameters: species or system murine; conditions: 200 ng/ml heparin
Method: as §1, §2
(§4) Components of the soluble receptor binding reaction mixture include FRAP-conditioned medium (0.24 OD units/min), 2 ng/ml^125 I-FGFs and 200 ng/ml heparin. The FGF:heparin:FRAP terniary complex is immunoprecipitated with 20 μl of a 1:1 slurry of anti-AP monoclonal antibodies coupled to protein A Sepharose®. All components are mixed at room temperature. The total volume is adjusted to 200 μl by addition of DMEM containing 0.1% bovine serum albumin. Binding is allowed to proceed for 1 to 2 hours at 24° C., after which time bound receptor complex or the ligand is recovered by centrifugation at 4° C. (10 s at 2,000×g). The pelleted material is washed twice with 500 μl of an ice cold buffer containing HEPES (20 mM), NaCl (150 mM), glycerol (10%) and Triton® X-100 (1%). ^125 I-FGF binding is quantitated by counting of the samples in a gamma counter (LKB). Alternatively, AP enzyme activity of the FRAP protein is determined by transferring the FRAP receptor bound to […] to a flat-bottom microtiter plate in a volume of 50 μl of PBS. The reaction is initiated by addition of substrate (50 μl of 2× solution of AP assay buffer containing 2M diethanoiamine, 1 mM MgCl2, 20 mM homoarginine and 12 mM p-nitrophenyl phosphate). The reaction is followed at room temperature at 405 nm in a kinetic microplate reader.

[5] = Affinity for immobilized heparin (NaCl elution from heparin column); assay type: binding
Method: Cells from 1 liter cultures are harvested by centrifugation, resuspended in 30 ml of 50 mM Tris-HCl, pH 7.5 containing 0.1 mM EDTA and 0.6M NaCl, and disrupted by treatment with lysozyme (10 μg/ml) for 20 min at 4° C. followed by sonication (6×30 sec pulses). The lysates are clarified by centrifugation (10,000×g; 20 min) and the supernatant solutions incubated with 5 ml of hydrated heparin Sepharose (Pharmacia/LKB) at 4° C. for 1 hour with constant rotation. The resin is isolated by filtration on 0.8 μm filter apparatus (Nalgene), washed extensively with 10 mM Tris-HCl pH 7.4 containing 0.6M NaCl and bound protein eluted with Tris buffer containing 3M NaCl (25 ml). The 3M NaCl eluent is diluted 6-fold with Tris buffer and loaded onto a TSK heparin 5PW column (0.21×15 cm; The Nest Group, MA) and the column developed using a linear NaCl gradient (0.6 to 2M) in 90 min at a flow rate of […].
NaCl elution from heparin-Sepharose® is about 0.7M NaCl, compared with 1.4M NaCl for the wild-type protein. The molarity of NaCl required to elute the LK mutant is similar to that required to elute FGF-7.

[6] = test system: FGFR2(IIIb) (FGF-7 or KGF receptor); assay: Competition binding to soluble FGFR2(IIIb) (displacement of 125I-FGF-7); parameters: species or system murine; conditions: 200 ng/ml heparin
Method: as §1, §2, §4

[7] = test system: FGF receptor on BHK cells; assay: Competition for 125I-FGF-2 binding to baby hamster kidney (BHK) cells; conditions: 50 pM 125I-FGF-2; compared with FGF-2
Method: FGF-2LI and FGF-2LA are tested for their capacity to compete for the binding of ^125 I-FGF-2 (Amersham Corp.) to baby hamster kidney (BHK) cells, which express high numbers of FGF receptor. The assay employed is described by Moscatelli (J. Cell. Physiol. 131: 123-130 (1987)). Briefly stated, BHK cells plated on 24-well plates are incubated with 50 pM ^125 I-FGF-2 with serial dilutions of unlabelled FGF-2, FGF-2LI or FGF-2LA loop mutants at room temperature for 1 hour or at 4° C. for 2 hours. The cells are then incubated at 4° C. for 30 minutes, washed twice with phosphate-buffered saline and treated with 20 mM HEPES (N-2-hydroxyethyl-piperazine-N'-2-ethanesulfonic acid), pH 7.5, containing 2M NaCl to remove ^125 I-FGF-2 bound to low affinity heparin sulfate binding sites. Receptor bound ^125 I-FGF-2 is recovered by treatment of the cells with 0.5% Triton X-100 in 0.1M sodium phosphate, pH 8, and counted in a γ-counter. Assays are conducted in duplicate.

Substance	Cross-linking to FGFR2(IIIb) [1]	Cross-linking to FGFR1 [2]	Angiogenesis at 400 ng/chamber ([3]; 400 ng/chamber)	Concentration range over which stimulatory activity is observed ([3]; rabbit ear chamber)	Potential to induce angiogenesis (neovascularization) ([3]; rabbit ear chamber, controlled-release alginate capsule)	Vessel formation in the chamber ([3]; rabbit ear chamber, versus control chambers)	Binding to soluble FGFR1 (competition with 125I-FGF-2) [4]	NaCl concentration at elution from TSK-heparin column ([5]; TSK-heparin column)	NaCl elution from heparin-Sepharose ([5]; heparin-Sepharose) [M]	Binding to soluble FGFR2(IIIb) (competition with 125I-FGF-7) [6]	Capacity to compete with 125I-FGF-2 binding to FGF receptors on BHK cells [7]
FGF-2: basic fibroblast growth factor, wild-type factor used as comparator (NNYNTYRSRKYTSWYVALKRT) [reference compound]	excluded from binding	bind	completely inhibited	10-100 ng/chamber	dose-dependent induction of new blood vessels	stimulate large vessel formation	bind equally well	about 1.5 M	1.4	do not bind; also recorded: does not compete	
hrIL-1β: human recombinant interleukin-1β (Biogen) [reference compound]											no binding
FGF-1: acidic fibroblast growth factor	bind	bind					bind equally well			bind with the same affinity	affinity equal to that of FGF-2
FGF-7: fibroblast growth factor-7, also known as keratinocyte growth factor or KGF (NHYNTYASAKWTHNGGEMFVALNQK)	bind	not detected					no binding			bind with the same affinity	

Reference: patent US5491220A, “Surface loop structural analogues of fibroblast growth factors” (Yeda Research and Development Co., Ltd., priority 1994, dated 1996)
